Read-outs that look alike come from different tables or passages of the source.
Assays:
[1] = target: T1, Csx1-Crn2; assay: EMSA with radiolabelled cA4; assay type: binding, Marinitoga piezophila; conditions: pH 7.5, 2 mM MgCl2, 25 °C; Crn2 ring nuclease site (CARF site also present); labelled compound; no obvious gel shift, value judged from cA4 cleavage at high protein concentration; discussion gives > 1; read-out: apparent KD
T1 construct: full length, 563 aa natural fusion; synthetic gene codon-optimised, expressed in E. coli C43 (DE3); N-terminal His tag removed by TEV; V177L in the cloned gene; dimer

[2] = target: T1, Csx1-Crn2; assay: EMSA with radiolabelled cA4; assay type: binding, Marinitoga piezophila; conditions: pH 7.5, 2 mM MgCl2, 25 °C; Crn2 ring nuclease site (CARF site also present); labelled compound; read-out: apparent KD

## Nc1ncnc2c1ncn2[C@@H]1O[C@@H]2COP(=O)(O)O[C@H]3[C@@H](O)[C@H](n4cnc5c(N)ncnc54)O[C@@H]3COP(=O)(O)O[C@H]3[C@@H](O)[C@H](n4cnc5c(N)ncnc54)O[C@@H]3COP(=O)(O)O[C@H]3[C@@H](O)[C@H](n4cnc5c(N)ncnc54)O[C@@H]3COP(=O)(O)O[C@H]2[C@H]1O [cA4]
[1]
  Kd: ~1000 nM
[2]
  Kd: ~20 nM
